Tests used:
[1] = test system: M. haemolytica (strain 34195); assay: M. haemolytica trans-tracheal challenge study in Holstein/Holstein cross cattle; conditions: for back transform LSmean percent lung lesions / mortality: end of study (6 days)
[2] = test system: naturally occurring BRD infection; assay: Naturally occurring BRD infection treatment study in cattle; format: in vivo, cattle (mixed beef and/or dairy breeds); conditions: for treatment success based on respiratory symptoms and attitude: control about 20%
Experimental: In a second study, cattle (mixed beef and/or dairy breeds; 180-270 kg) were treated from a naturally occurring BRD infection. Animals (n=40/group) received a single subcutaneous dose of saline (control) or test (15 mg/kg or 20 mg/kg) compound. Overall, treatment success, based on respiratory symptoms (rate, mucopurulent nasal or ocular discharge, open mouth breathing) and attitude (alert, stimuli response time, muscle weakness, ataxia, swaying) was about 37% and 47% for the 15 mg/kg and 20 mg/kg dose, respectively. In contrast, control animal success was about 20%.

[3] = test system: A3579 (OSU-012103-BHI) strain of Mannheimia haemolytica; assay: Mannheimia haemolytica trans-tracheal challenge BRD study in dairy calves; format: in vivo; conditions: for percentage of lung lesion at necropsy, upper range value: control about 45%
Experimental: In one study, healthy dairy calves (N=15/group; 85-140 kg) were trans-tracheally infected -2 to -1 days with the […] (OSU-012103-BHI) strain of Mannheimia haemolytica. The challenge dose ranged from about […] to 4.9×10^8 CFU. On Day 0, BRD symptomatic animals received a single subcutaneous dose of saline (control) or test (20 or 40 mg/kg) compound. At necropsy, control animals presented with an upper range of lung lesions of about 45%. […] Therefore, a single dose of the Formula (1) compound administered subcutaneously was effective for the treatment of BRD caused by M. haemolytica in dairy calves.

[4] = test system: Gram-positive bacteria and Gram-negative bacteria; conditions: background statement; cited from earlier work
[5] = T03, positive control, dose not given, subcutaneously 4-6 hours post challenge
[6] = 40 mg/kg (T02, T05) subcutaneously 4-6 hours post challenge, saline T01 35.1%
[7] = 40 mg/kg (T02, T05) subcutaneously 4-6 hours post challenge, saline T01 53.3%

| Structure (SMILES) | back transform LSmean percent lung lesions [1, 5] | mortality [1, 5] | treatment success based on respiratory symptoms and attitude ([2]; 15 mg/kg single subcutaneous dose) | treatment success based on respiratory symptoms and attitude ([2]; 20 mg/kg single subcutaneous dose) | treatment effect in cattle with natural BRD infections (conclusion) ([2]; single subcutaneous dose 15 or 20 mg/kg) | percentage of lung lesion at necropsy, upper range value ([3]; 20 mg/kg single subcutaneous dose on Day 0) | percentage of lung lesion at necropsy, upper range value ([3]; 40 mg/kg single subcutaneous dose on Day 0) | treatment of BRD caused by M. haemolytica (conclusion) ([3]; single dose administered subcutaneously, dairy calves) | back transform LSmean percent lung lesions [1, 6] | mortality [1, 7] | percent lung lesions compared with T03 (Baytril) ([1]; T04 (20 mg/kg) and T05 (40 mg/kg)) | back transform LSmean percent lung lesions ([1]; T04, 20 mg/kg subcutaneously 4-6 hours post challenge, saline T01 35.1%) | mortality ([1]; T04, 20 mg/kg subcutaneously 4-6 hours post challenge, saline T01 53.3%) | antibacterial activity relative to thiamphenicol [4] |
| --- | --- | --- | --- | --- | --- | --- | --- | --- | --- | --- | --- | --- | --- | --- |
| CCN1CCN(c2cc3c(cc2F)c(=O)c(C(=O)O)cn3C2CC2)CC1 [Baytril, enrofloxacin, reference compound] | 9.1% | 0% |  |  |  |  |  |  |  |  |  |  |  |  |
| CS(=N)(=O)c1ccc(-c2ccc([C@@H](O)[C@@H](CF)NC(=O)C(F)F)cc2)cn1 (stereo partly drawn) [Formula (1) compound, 2,2-difluoro-N-((1R,2S)-3-fluoro-1-hydroxy-1-(4-(6-(S-methylsulfonimidoyl)pyridin-3-yl)phenyl)propan-2-yl)acetamide] |  |  | about 37% | ~47% | significant treatment effect | about 12% | ~8% | effective | 6.8% | 0% | not different | 13.3% | 0% |  |
| CS(=O)(=O)c1ccc([C@@H](O)[C@@H](CF)NC(=O)C(Cl)Cl)cc1 [Nuflor, florfenicol, reference compound] |  |  |  |  |  |  |  |  | 32.1% | 46.7% |  |  |  | up to 10 times |
